From ChEMBL document CHEMBL5036362, “Salidroside Promotes Sensitization to Doxorubicin in Human Cancer Cells by Affecting the PI3K/Akt/HIF Signal Pathway and Inhibiting the Expression of Tumor-Resistance-Related Proteins” (J Nat Prod, 2022)
Activity calls are given as the source filed them. No cut-off for these calls is given here.

Assays:
[1] = Toxicity in BALB/c nude mouse xenografted with human HeLa cells assessed as induction of fainting at 1 mg/kg, ip administered every 2 days for 18 days; format: organism-based; settings: in vivo, 432 h, time 18 day
[2] = Toxicity in BALB/c nude mouse xenografted with human HeLa cells assessed as induction of breathing difficulties at 1 mg/kg, ip administered every 2 days for 18 days; format: organism-based; settings: in vivo, 432 h, time 18 day
[3] = Toxicity in BALB/c nude mouse xenografted with human HeLa cells assessed as inflammation in myocardial tissue at 1 mg/kg, ip administered every 2 days for 18 days by H and E staining; format: organism-based, Myocardium/plasma; settings: in vivo, 432 h, time 18 day
HeLa [4] = assay: Antimigratory activity against human HeLa cells at 0.22 uM measured upto 48 hrs by electron microscope based Wound healing assay relative to control; format: functional; settings: time hrs <=48
[5] = Toxicity in BALB/c nude mouse xenografted with human HeLa cells assessed as change in body weight at 1 mg/kg, ip administered every 2 days for 18 days; format: organism-based; settings: in vivo, 432 h, time 18 day
[6] = Induction of MDR1 gene expression in human HeLa cells by qRT-PCR analysis; format: functional
[7] = Toxicity in BALB/c nude mouse xenografted with human HeLa cells assessed as induction of convulsions at 1 mg/kg, ip administered every 2 days for 18 days; format: organism-based; settings: in vivo, 432 h, time 18 day
HeLa [8] = assay: Cytotoxicity against human HeLa cells assessed as reduction in cell viability measured after 48 hrs by CCK-8 assay; format: functional
HeLa [9] = assay: Antitumor activity against human HeLa cells xenografted in BALB/c nude mouse assessed as tumor growth inhibition at 1 mg/kg, ip administered every 2 days for 18 days by firefly luciferase based bioluminescence assay; format: functional, organism-based; settings: time 18.0 day
HeLa [10] = assay: Induction of morphological change in human HeLa cells assessed as cell shrinkage measured after 48 hrs by CCK-8 assay; format: functional, cell-based
[11] = Toxicity in BALB/c nude mouse xenografted with human HeLa cells assessed as induction of incontinence at 1 mg/kg, ip administered every 2 days for 18 days; format: organism-based; settings: in vivo, 432 h, time 18 day
HeLa [12] = assay: Induction of morphological change in human HeLa cells assessed as reduction in size measured after 48 hrs by CCK-8 assay; format: functional, cell-based
HeLa [13] = assay: Upregulation of doxorubicin induced BAX protein expression in human HeLa cells after 48 hrs by western blotting analysis; format: functional, cell-based
HeLa [14] = assay: Downregulation of doxorubicin induced MMP-2 protein expression in human HeLa cells after 48 hrs by western blotting analysis; format: functional, cell-based
HeLa [15] = assay: Downregulation of doxorubicin induced AKT protein expression in human HeLa cells after 48 hrs by western blotting analysis; format: functional, cell-based
HeLa [16] = assay: Antitumor activity against human HeLa cells xenografted in BALB/c nude mouse assessed as tumor growth inhibition at 80 mg/kg, ig for administered every 2 days for 18 days by firefly luciferase based bioluminescence assay; format: functional, organism-based; settings: time 18.0 day
HeLa [17] = assay: Downregulation of AKT protein expression in human HeLa cells after 48 hrs by western blotting analysis; format: functional, cell-based
[18] = Toxicity in BALB/c nude mouse xenografted with human HeLa cells assessed as induction of fainting at 80 mg/kg, ig administered every 2 days for 18 days; format: organism-based; settings: in vivo, po, 432 h, time 18 day
HeLa [19] = assay: Downregulation of MMP-2 protein expression in human HeLa cells after 48 hrs by western blotting analysis; format: functional, cell-based
Mus musculus [20] = assay: Effect on DOX induced tissue damage in BALB/c nude mouse xenografted with human HeLa cells assessed as inflammatory cell infiltration in liver at 80 mg/kg, ig administered every 2 days for 18 days by H and E staining; format: functional, organism-based; settings: time 18.0 day
[21] = Toxicity in DOX induced BALB/c nude mouse xenografted with human HeLa cells assessed as induction of convulsions at 80 mg/kg, ig administered every 2 days for 18 days; format: organism-based; settings: in vivo, po, 432 h, time 18 day
HeLa [22] = assay: Induction of morphological change in human HeLa cells assessed as potentiation of doxorubicin induced reduction in size measured after 48 hrs in presence of doxorubicin by CCK-8 assay; format: functional, cell-based
HeLa [23] = assay: Downregulation of MMP-9 protein expression in human HeLa cells after 48 hrs by western blotting analysis; format: functional, cell-based
[24] = Decrease in MDR1 gene expression in human HeLa cells by qRT-PCR analysis; format: functional; settings: dose 0.017 mol/L; time 48 hrs
HeLa [25] = assay: Induction of morphological change in human HeLa cells assessed as potentiation of doxorubicin induced cell shrinkage measured after 48 hrs in by CCK-8 assay; format: functional, cell-based
[26] = Toxicity in BALB/c nude mouse xenografted with human HeLa cells assessed as induction of convulsions at 80 mg/kg, ig administered every 2 days for 18 days; format: organism-based; settings: in vivo, po, 432 h, time 18 day
[27] = Toxicity in DOX induced BALB/c nude mouse xenografted with human HeLa cells assessed as change in body weight at 80 mg/kg, ig administered every 2 days for 18 days; format: organism-based; settings: in vivo, po, 432 h, time 18 day
[28] = Toxicity in BALB/c nude mouse xenografted with human HeLa cells assessed as potentiation of doxorubicin induced inflammation in myocardial tissue at 80 mg/kg, ig administered every 2 days for 18 days by H and E staining; format: organism-based, Myocardium/plasma; settings: in vivo, po, 432 h, time 18 day
HeLa [29] = assay: Downregulation of Bcl-2 protein expression in human HeLa cells after 48 hrs by western blotting analysis; format: functional, cell-based
HeLa [30] = assay: Upregulation of BAX protein expression in human HeLa cells after 48 hrs by western blotting analysis; format: functional, cell-based
Mus musculus [31] = assay: Effect on DOX induced tissue damage in BALB/c nude mouse xenografted with human HeLa cells assessed as spleen enlargement at 80 mg/kg, ig administered every 2 days for 18 days by H and E staining; format: functional, organism-based
HeLa [32] = assay: Downregulation of doxorubicin induced PI3K protein expression in human HeLa cells after 48 hrs by western blotting analysis; format: functional, cell-based
[33] = Toxicity in BALB/c nude mouse xenografted with human HeLa cells assessed as induction of incontinence at 80 mg/kg, ig administered every 2 days for 18 days; format: organism-based; settings: in vivo, po, 432 h, time 18 day
HeLa [34] = assay: Inhibition of hypoxia-inducible factor 1 alpha in DOX induced human HeLa cells assessed as downregulation of protein at 0.017 mmol/L after 48 hrs by Western blotting analysis; format: functional
Mus musculus [35] = assay: Effect on DOX induced tissue damage in BALB/c nude mouse xenografted with human HeLa cells assessed as appearance of lesions in glomerular tubule at 80 mg/kg, ig for administered every 2 days for 18 days by H and E staining; format: functional, organism-based; settings: Renal glomerulus, time 18.0 day
HeLa [36] = assay: Antiproliferative activity against human HeLa cells assessed as inhibition of cell proliferation measured after 48 hrs by CCK-8 assay; format: functional, cell-based
HeLa [37] = assay: Cytotoxicity against human HeLa cells assessed as potentiation of doxorubicin induced cell survival measured after 72 hrs by CCK-8 assay; format: functional
HeLa [38] = assay: Downregulation of PI3K protein expression in human HeLa cells after 48 hrs by western blotting analysis; format: functional, cell-based
[39] = Toxicity in BALB/c nude mouse xenografted with human HeLa cells assessed as induction of breathing difficulties at 80 mg/kg, ig administered every 2 days for 18 days; format: organism-based; settings: in vivo, po, 432 h, time 18 day
[40] = Decrease in MDR1 gene expression in DOX induced human HeLa cells by RT-PCR analysis; format: functional
HeLa [41] = assay: Antitumor activity against DOX induced human HeLa cells xenografted in BALB/c nude mouse assessed as induction of apoptosis by measuring increase in TUNEL positive nuclei at 80 mg/kg, ig administered every 2 days for 18 days by TUNEL staining based assay; format: functional, organism-based; settings: time 18.0 day
HeLa [42] = assay: Antitumor activity against human HeLa cells xenografted in BALB/c nude mouse assessed as potentiation of doxorubicin induced tumor growth inhibition at 80 mg/kg, ig administered every 2 days for 18 days by firefly luciferase based bioluminescence assay; format: functional, organism-based; settings: time 18.0 day
[43] = Toxicity in DOX induced BALB/c nude mouse xenografted with human HeLa cells assessed as induction of breathing difficulties at 80 mg/kg, ig administered every 2 days for 18 days; format: organism-based; settings: in vivo, po, 432 h, time 18 day
HeLa [44] = assay: Inhibition of potentiation of doxorubicin induced cell migration in human HeLa cells measured upto 48 hrs by electron microscope based Wound healing assay relative to control; format: functional; settings: time hrs <=48
HeLa [45] = assay: Downregulation of doxorubicin induced Bcl-2 protein expression in human HeLa cells after 48 hrs by western blotting analysis; format: functional, cell-based
HeLa [46] = assay: Downregulation of doxorubicin induced MMP-9 protein expression in human HeLa cells after 48 hrs by western blotting analysis; format: functional, cell-based
[47] = Toxicity in BALB/c nude mouse xenografted with human HeLa cells assessed as change in body weight at 80 mg/kg, ig administered every 2 days for 18 days; format: organism-based; settings: in vivo, po, 432 h, time 18 day
[48] = Toxicity in DOX induced BALB/c nude mouse xenografted with human HeLa cells assessed as induction of fainting at 80 mg/kg, ig administered every 2 days for 18 days; format: organism-based; settings: in vivo, po, 432 h, time 18 day
HeLa [49] = assay: Antimigratory activity against human HeLa cells at 0.017 mmol/L measured upto 48 hrs by electron microscope based Wound healing assay relative to control; format: functional; settings: time hrs <=48
[50] = Toxicity in DOX induced BALB/c nude mouse xenografted with human HeLa cells assessed as induction of incontinence at 80 mg/kg, ig administered every 2 days for 18 days; format: organism-based; settings: in vivo, po, 432 h, time 18 day

## COc1cccc2c1C(=O)c1c(O)c3c(c(O)c1C2=O)C[C@@](O)(C(=O)CO)C[C@@H]3O[C@H]1C[C@H](N)[C@H](O)[C@H](C)O1 [DOXORUBICIN]
[1]
  Activity: Non-Toxic
[2]
  Activity: Non-Toxic
[3]
  Activity: Toxic
HeLa [4]
  Activity: 57.14%
[5]
  Activity: Non-Toxic
[6]
  Activity: 8.69
[7]
  Activity: Non-Toxic
HeLa [8]
  Activity: 2.67 µM
HeLa [9]
  Activity: inactive
HeLa [10]
  Activity: Active
[11]
  Activity: Non-Toxic
HeLa [12]
  Activity: Active

## OC[C@H]1O[C@@H](OCCc2ccc(O)cc2)[C@H](O)[C@@H](O)[C@@H]1O [SALIDROSIDE]
HeLa [13]
  Activity: Active
HeLa [14]
  Activity: Active
HeLa [15]
  Activity: Active
HeLa [16]
  Activity: Active
HeLa [17]
  Activity: Active
[18]
  Activity: Non-Toxic
HeLa [19]
  Activity: Active
Mus musculus [20]
  Activity: inactive
[21]
  Activity: Non-Toxic
HeLa [22]
  Activity: Active
HeLa [23]
  Activity: Active
[24]
  Activity: 1.65
HeLa [25]
  Activity: Active
[26]
  Activity: Non-Toxic
[27]
  Activity: Non-Toxic
[28]
  Activity: Non-Toxic
HeLa [29]
  Activity: Active
HeLa [30]
  Activity: Active
Mus musculus [31]
  Activity: inactive
HeLa [32]
  Activity: Active
[33]
  Activity: Non-Toxic
HeLa [34]
  Activity: Active
Mus musculus [35]
  Activity: inactive
HeLa [36]
  IC50: 10.5 µM
HeLa [37]
  Activity: >85%
HeLa [38]
  Activity: Active
[39]
  Activity: Non-Toxic
[40]
  Activity: 2.76
HeLa [41]
  Activity: Active
HeLa [42]
  Activity: Active
[43]
  Activity: Non-Toxic
HeLa [44]
  inhibition (INH): 18.95%
HeLa [8]
  Activity: 0.183 µM
HeLa [45]
  Activity: Active
HeLa [46]
  Activity: Active
HeLa [10]
  Activity: Active
[47]
  Activity: Non-Toxic
HeLa [12]
  Activity: Active
[48]
  Activity: Non-Toxic
HeLa [49]
  Activity: 56.34%
[50]
  Activity: Non-Toxic
